The text below walks through data of ChEMBL document CHEMBL1133758, “Docking-based development of purine-like inhibitors of cyclin-dependent kinase-2” (J Med Chem, 2000).

Assay [1] addresses Cyclin-dependent kinase 2 (Homo sapiens, UniProt P24941). The assay is described as follows: Inhibition of Cyclin-dependent kinase 2.
The target in assay [2] is Cyclin-dependent kinase 1 (Homo sapiens, UniProt P06493). In words: Inhibition of Cyclin-dependent kinase 1.
Sequence of Cyclin-dependent kinase 1 (P06493 whole entry): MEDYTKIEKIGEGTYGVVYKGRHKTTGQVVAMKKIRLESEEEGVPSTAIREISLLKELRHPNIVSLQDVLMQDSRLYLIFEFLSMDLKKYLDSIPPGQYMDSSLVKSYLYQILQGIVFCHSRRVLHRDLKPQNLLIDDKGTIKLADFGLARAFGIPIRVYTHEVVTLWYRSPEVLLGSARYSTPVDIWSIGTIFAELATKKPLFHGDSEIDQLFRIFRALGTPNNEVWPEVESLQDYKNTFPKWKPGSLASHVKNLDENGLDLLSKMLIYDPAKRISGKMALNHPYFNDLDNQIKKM

For orientation: IC50 means the concentration that gives 50% inhibition. The low end stands for greater potency, the high end for weaker potency. `CC(C)n1cnc2c(N)nc(NCCCO)nc21`: the IC50 in assay [1] was determined as 2400 nM; in assay [2], 10000 nM.
`CC(C)C(CO)Nc1nc(NCc2cccc(O)c2)c2ncn(C(C)C)c2n1` (stereo unspecified) gave a 50% inhibitory concentration (IC50) in assay [1] of 30 nM.
In the case of `CC(C)n1cnc2c(NC3CCCC3)nc(NCCCO)nc21`, the results for the IC50 in assay [1] and in assay [2] were 900 nM and 2400 nM, respectively.
On the same counts, the results for `CC(C)n1cnc2c(NC34CC5CC(CC(C5)C3)C4)nc(NCCCO)nc21` are greater than 100000 nM and greater than 100000 nM.
In assay [1], `CC(C)n1cnc2c(NCc3ccccc3)nc(NC[C@@H](C)O)nc21` returned an IC50 of 200 nM.
Consider `CC(C)n1cnc2c(NCc3ccccc3)ncnc21`, for which the figures for the IC50 in assay [1] and in assay [2] were 4500 nM and 3500 nM, respectively.
In assay [1], `CC(C)n1cnc2c(NCc3ccccc3)nc(NCCCO)nc21` [BOHEMINE] had a 50% inhibitory concentration (IC50) of 800 nM.
